In brackets after ≈: the same amount, converted by molar mass.
Assays:
HCT-116 [1] = assay: Cytotoxicity against human HCT116 cells deficient in p53 incubated for 72 hrs by MTS assay; details: HCT-116, 72 h
HCT-116 [2] = assay: Cytotoxicity against human HCT116 cells expressing wild type p53 incubated for 72 hrs by MTS assay; details: HCT-116, 72 h
NHDF = assay: Cytotoxicity against human NHDF cells incubated for 72 hrs by MTS assay; type: cell-based
PANC-1 = assay: Cytotoxicity against human PANC1 cells harboring mutant TP53 gene incubated for 72 hrs by MTS assay; type: functional, cell-based; details: PANC-1, 72 h
U-251 = assay: Cytotoxicity against human U251 cells harboring mutant TP53 gene incubated for 72 hrs by MTS assay; type: functional, cell-based; details: U-251, 72 h
HCT-116 [3] = assay: Anticancer activity against human HCT116 cells deficient in p53 assessed as inhibition of cell proliferation; type: functional, cell-based
HCT-116 [4] = assay: Anticancer activity against human HCT116 cells assessed as inhibition of cell proliferation
HepG2 = assay: Anticancer activity against human HepG2 cells assessed as inhibition of cell proliferation; type: functional, cell-based
MCF7 = assay: Anticancer activity against human MCF7 cells assessed as inhibition of cell proliferation; type: functional, cell-based
ASPC1 = assay: Cytotoxicity against human AsPC1 cells deficit of P53 gene incubated for 72 hrs by MTS assay; type: functional, cell-based; details: ASPC1, 72 h

| SMILES | IC50 (HCT-116 [1]) [µM] | IC50 (HCT-116 [2]) [µM] | IC50 (NHDF) [µM] | further results |
| --- | --- | --- | --- | --- |
| Oc1cccc2ccc(/C=C/c3c(F)cccc3Cl)nc12 | > 25 | > 25 | – | – |
| COc1ccc(/C=C/c2nc(NCCCN(C)C)c3ccccc3n2)cc1 | 26.3 | 18.6 | 12.3 | IC50 (PANC-1; read-out: IC50): > 25 µM; IC50 (U-251): 18.8 µM |
| Oc1cccc2ccc(/C=C/c3ccccc3F)nc12 | – | – | – | IC50 (HCT-116 [3]): 8.4 µM |
| CC(=O)Oc1ccccc1/C=C/c1ccc2cccc(O)c2n1 | 13.5 | 7.32 | 6.92 | IC50 (HCT-116 [4]): 7.3 µM |
| CN(C)c1ccc(/C=C/c2cc(-c3nnc(N)s3)c3cc(Br)ccc3n2)cc1 | – | – | – | IC50 (HepG2): 9 µg/mL (≈ 19.9 µM) |
| COc1cccc2c(Nc3ccc(/C(C)=N/O)cc3)cc(/C=C/c3ccccc3)nc12 | – | – | – | IC50 (MCF7): > 4 µg/mL |
| Oc1ccc(/C=C/c2ccc3cccc(O)c3n2)cc1 | 16.6 | 13.5 | > 25 | – |
| COc1cccc2c1C(=O)c1c(O)c3c(c(O)c1C2=O)C[C@@](O)(C(=O)CO)C[C@@H]3O[C@H]1C[C@H](N)[C@H](O)[C@H](C)O1 [DOXORUBICIN] | 0.38 | 0.34 | 0.14 | IC50 (ASPC1): 0.86 µM; IC50 (PANC-1): 0.73 µM; IC50 (U-251): 0.05 µM |
| O=c1[nH]cc(F)c(=O)[nH]1 [FLUOROURACIL] | 4.69 | 4.42 | > 25 | – |
